The nature of data set [1]: Drying of selected materials under vacuum at 45° C., solid form checked by XRPD. It is filed as physicochemical. The protocol:
(§1) XRPD patterns were collected with a PANalytical X'Pert PRO MPD or Empyrean diffractometer using an incident beam of Cu radiation produced using an Optix long, fine-focus source. An elliptically graded multilayer mirror was used to focus Cu Ku X-ray radiation through the specimen and onto the detector. Prior to the analysis, a silicon specimen (NIST SRM 640e) was analyzed to verify the observed position of the Si (111) peak is consistent with the NIST-certified position. A specimen of the sample was sandwiched between 3-μm-thick films and analyzed in transmission geometry. A beam-stop, short antiscatter extension, and antiscatter knife-edge were used to minimize the background generated by air. Soller slits for the incident and diffracted beams were used to minimize broadening from axial divergence. Diffraction patterns were collected using a scanning position-sensitive detector (X'Celerator) located 240 mm from the specimen and Data Collector software v. 5.5.

Data set [2] can be described thus: Stable form and hydrate screen via slurry-trituration experiments. The data set is classed as physicochemical. The following applies: anh. EtOH, 55° C., 7 d, brown suspension. How it is done: Slurry triburation experiments target the stable forms, including stable solvates and hydrates.
The slurry-trituration experiments were conducted by stirring solids of Compound I in specified solvents and solvent mixtures at various temperatures for 7 days (elevated temperature) or 14-18 days (ambient and sub-ambient temperatures). A summary of experimental conditions and results is detailed in Table 13.
as §1

Data set [3] is described as follows: Polymorph screen (evaporation, cooling, slurry, solvent/anti-solvent). It is filed as physicochemical. As to conditions: EtOAc/HFIPA (36:64), stirred at 60° C. 1 d, FC to ice/water bath, FE w/N2 purge. The source says:
Solids of Compound I unless noted otherwise, was used as the starting material. Materials produced in the study were utilized for selected experiments.
Solutions of starting material were allowed to partially evaporate or evaporate to dryness at ambient or elevated temperature from open vials for fast evaporation (FE) or from vials covered with aluminum foil with pin holes for slow evaporation (SE). Prior to evaporation, solutions were filtered at ambient or elevated temperature using 0.2 μm nylon filters.
Solutions of starting material were prepared in specified solvents at elevated temperature using a hot plate for heating. These were typically hot-filtered through a 0.2 μm nylon filter into warm receiving vials. […]
XRPD patterns were collected with a PANalytical X'Pert PRO MPD or Empyrean diffractometer using an incident beam of Cu radiation produced using an Optix long, fine-focus source. […] Prior to the analysis, a silicon specimen (NIST SRM 640e) was analyzed to verify the observed position of the Si (111) peak is consistent with the NIST-certified position. A specimen of the sample was sandwiched between 3-μm-thick films and analyzed in transmission geometry. […]

Another data set deals with T1, glucokinase (Homo sapiens, UniProt P35557).
T1 sequence (P35557 1-465): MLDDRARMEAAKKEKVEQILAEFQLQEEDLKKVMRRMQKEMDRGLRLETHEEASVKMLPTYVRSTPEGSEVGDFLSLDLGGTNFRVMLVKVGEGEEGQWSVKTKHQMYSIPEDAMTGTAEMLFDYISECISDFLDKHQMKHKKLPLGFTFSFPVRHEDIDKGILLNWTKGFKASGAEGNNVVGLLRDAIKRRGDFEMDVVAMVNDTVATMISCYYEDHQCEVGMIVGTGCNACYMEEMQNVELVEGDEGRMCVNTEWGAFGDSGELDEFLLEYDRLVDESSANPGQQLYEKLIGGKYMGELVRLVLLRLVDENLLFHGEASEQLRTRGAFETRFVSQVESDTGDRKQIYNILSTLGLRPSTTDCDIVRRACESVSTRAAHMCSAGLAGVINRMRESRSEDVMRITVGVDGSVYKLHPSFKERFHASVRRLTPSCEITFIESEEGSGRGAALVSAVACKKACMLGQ
The following applies: cited from earlier work.

Data set [4] can be described thus: Competitive slurry experiment in acetone among Form A, Form D, Form B and Form E, XRPD. The data set is classed as physicochemical. As to conditions: for XRPD Results after competitive slurry of Forms A, D, B, E: acetone pre-saturated with Form A, 7 d, solids analyzed wet.
Excerpt: At each condition, similar amounts of solids from the four forms/materials were slurried in pre-saturated solutions at the examined temperature conditions for 7 days; solids were then isolated and analyzed wet by XRPD.
as §1

Entries after “also recorded” stand apart in the source; their conditions may differ.

For `CCCO[C@H]1CC[C@H](N(C(=O)Nc2ncc(SCC(=O)O)s2)C2CCCCC2)CC1` [Compound I Form E + minor Form A, {2-[3-cyclohexyl-3-(trans-4-propoxy-cyclohexyl)-ureido]-thiazol-5-ylsulfanyl}-acetic acid], in data set [1] (vacuum/45° C./1 d), the “XRPD Results after drying” value is “Compound I Form B +”.

As for `CCCO[C@H]1CC[C@H](N(C(=O)Nc2ncc(SCC(=O)O)s2)C2CCCCC2)CC1` [Compound I Material G, {2-[3-cyclohexyl-3-(trans-4-propoxy-cyclohexyl)-ureido]-thiazol-5-ylsulfanyl}-acetic acid], the “XRPD Results after drying” value in data set [1] (vacuum/45° C./1 d) is “disordered”.

For `CCCO[C@H]1CC[C@H](N(C(=O)Nc2ncc(SCC(=O)O)s2)C2CCCCC2)CC1` [Compound I, {2-[3-cyclohexyl-3-(trans-4-propoxy-cyclohexyl)-ureido]-thiazol-5-ylsulfanyl}-acetic acid], the “XRPD Result after slurry-trituration” value in data set [2] is “decomposed”. Also, the “XRPD Result after polymorph screen experiment” value in data set [3] is recorded as “decomposed”. Moreover, at glucokinase (oral, liver selective glucokinase activator), the Glycemic control entry is “improves glycemic control”. The “Adverse effects (hypoglycemia, dyslipidemia/increased TG, liver glycogen and TG, loss of efficacy)” value on glucokinase (therapeutically relevant doses, compared with other GK activators) was “does not cause similar adversarial effects; also recorded: may not induce hypoglycemia, dyslipidemia, or pathological increases of glycogen and TG in the liver”.

Take `CCCO[C@H]1CC[C@H](N(C(=O)Nc2ncc(SCC(=O)O)s2)C2CCCCC2)CC1` [Form A, {2-[3-cyclohexyl-3-(trans-4-propoxy-cyclohexyl)-ureido]-thiazol-5-ylsulfanyl}-acetic acid]: the “XRPD Results after competitive slurry of Forms A, D, B, E” value in data set [4] (2-8° C.), in data set [4] (45° C.) and in data set [4] (RT) was “Form A” throughout. Also, the “Relative stability among anhydrous forms A, B, D, E” value in data set [4] (within 2-8° C. to 45° C., based on competitive slurries) is “likely the most stable form”.

On to `CCCO[C@H]1CC[C@H](N(C(=O)Nc2ncc(SCC(=O)O)s2)C2CCCCC2)CC1` [Form C, {2-[3-cyclohexyl-3-(trans-4-propoxy-cyclohexyl)-ureido]-thiazol-5-ylsulfanyl}-acetic acid], for which the “Solid form change upon drying / desolvation” value in data set [1] is “desolvates into Form D”. Besides, the “XRPD Results after drying” value is on record as “Compound I Form D” in data set [1] (vacuum/45° C./1 h) and “Compound I Form D ±” in data set [1] (vacuum/45° C./1 d, listed as Compound I Form C).

Turning to `CCCO[C@H]1CC[C@H](N(C(=O)Nc2ncc(SCC(=O)O)s2)C2CCCCC2)CC1` [Form F, {2-[3-cyclohexyl-3-(trans-4-propoxy-cyclohexyl)-ureido]-thiazol-5-ylsulfanyl}-acetic acid], the “Solid form change upon drying / desolvation” value in data set [1] is “converts to Form D upon drying”. Moreover, the “XRPD Results after drying” value in data set [1] (vacuum/45° C./3 d, listed as Compound I Form F) is recorded as “Compound I Form D”.

With `CCCO[C@H]1CC[C@H](N(C(=O)Nc2ncc(SCC(=O)O)s2)C2CCCCC2)CC1` [Form G, {2-[3-cyclohexyl-3-(trans-4-propoxy-cyclohexyl)-ureido]-thiazol-5-ylsulfanyl}-acetic acid], in data set [1], the “Solid form change upon drying / desolvation” value is on record as “become disordered upon drying”. The “XRPD Results after drying” value in data set [1] (vacuum/45° C./3 d, listed as Compound I Form G) was “disordered”.

For the compound `CCCO[C@H]1CC[C@H](N(C(=O)Nc2ncc(SCC(=O)O)s2)C2CCCCC2)CC1` [Form H, {2-[3-cyclohexyl-3-(trans-4-propoxy-cyclohexyl)-ureido]-thiazol-5-ylsulfanyl}-acetic acid], in data set [1], the “Solid form change upon drying / desolvation” value was “become disordered upon drying”.

Regarding `CCCO[C@H]1CC[C@H](N(C(=O)Nc2ncc(SCC(=O)O)s2)C2CCCCC2)CC1` [Form I, {2-[3-cyclohexyl-3-(trans-4-propoxy-cyclohexyl)-ureido]-thiazol-5-ylsulfanyl}-acetic acid], the “Solid form change upon drying / desolvation” value in data set [1] was “converts to Form E or solids similar to Form E upon drying”. In addition, the “XRPD Results after drying” value in data set [1] (vacuum/45° C./1 d, listed as Compound I Form I) is listed as “Compound I Form B”.

The record behind these values is patent publication US12709603B2, “Crystalline forms of {2-[3-cyclohexyl-3-(trans-4-propoxy-cyclohexyl)-ureido]-thiazol-5-ylsulfanyl}-acetic acid and uses thereof” (vTv Therapeutics LLC, priority 2020, dated 2026).
